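Following 48 hours of exposure in 96-well plates, responses at five concentrations were used to interpolate endpoints linearly. The concentration for 50% growth inhibition is given as GI50.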 Active and inactive are the calls of the source. Rule as the data show it: active = GI50 up to about 1.1 µM and inactive = higher.
What was measured:
Assay in all cases: DTP human tumour cell line panel, 48 h
OVCAR-4 = tested on: OVCAR-4
HCT-15 = tested on: HCT-15
OVCAR-3 = tested on: OVCAR-3
SK-MEL-5 = tested on: SK-MEL-5
MOLT-4 = tested on: MOLT-4
U-251 = tested on: U-251
TK-10 = tested on: TK-10
CAKI-1 = tested on: CAKI-1
SF-295 = tested on: SF-295
HOP-62 = tested on: HOP-62
NCI-H23 = tested on: NCI-H23
SN12C = tested on: SN12C
UO-31 = tested on: UO-31
RXF 393 = tested on: RXF 393
MCF7 = tested on: MCF7
Malme-3M = tested on: Malme-3M
ACHN = tested on: ACHN
DU-145 = tested on: DU-145
IGROV-1 = tested on: IGROV-1
A498 = tested on: A498

SMILES	GI50 (OVCAR-4)	GI50 (HCT-15)	GI50 (OVCAR-3)	GI50 (SK-MEL-5)	GI50 (MOLT-4)	GI50 (U-251)	GI50 (TK-10)	GI50 (CAKI-1)	GI50 (SF-295)	GI50 (HOP-62)	GI50 (NCI-H23)	GI50 (SN12C)	GI50 (UO-31)	GI50 (RXF 393)	GI50 (MCF7)	GI50 (Malme-3M)	GI50 (ACHN)	GI50 (DU-145)	GI50 (IGROV-1)	GI50 (A498)
CCOC(=O)/C=C1/Nc2cc(F)c(F)cc2NC1=O	> 100 µM (inactive)	> 100 µM	> 100 µM (inactive)	> 100 µM (inactive)	> 100 µM (inactive)	> 100 µM (inactive)	> 100 µM (inactive)	> 100 µM (inactive)	> 100 µM (inactive)	> 100 µM (inactive)	> 100 µM (inactive)	> 100 µM (inactive)	> 100 µM (inactive)	> 100 µM (inactive)	> 100 µM (inactive)	> 100 µM (inactive)	> 100 µM (inactive)	> 100 µM (inactive)	–	–
CC1=NC2(CCCCC2)N(Cl)C(=O)C1SC#N (configuration not stated)	20.8 µM (inactive)	23.8 µM	19.6 µM (inactive)	18.2 µM (inactive)	4.97 µM (inactive)	19.4 µM (inactive)	20.3 µM (inactive)	–	18.7 µM (inactive)	22.9 µM (inactive)	25.1 µM (inactive)	19.4 µM (inactive)	18.8 µM (inactive)	18.3 µM (inactive)	23.6 µM (inactive)	18.2 µM (inactive)	17.7 µM (inactive)	25.2 µM (inactive)	18.2 µM (inactive)	> 100 µM (inactive)
CC(=O)/N=C1\NC(=O)/C(=C/c2ccccc2Cl)N1C	> 100 µM (inactive)	65.9 µM	> 100 µM (inactive)	> 100 µM (inactive)	> 100 µM (inactive)	> 100 µM (inactive)	> 100 µM (inactive)	> 100 µM (inactive)	> 100 µM (inactive)	> 100 µM (inactive)	> 100 µM (inactive)	> 100 µM (inactive)	> 100 µM (inactive)	> 100 µM (inactive)	> 100 µM (inactive)	–	> 100 µM (inactive)	> 100 µM (inactive)	> 100 µM (inactive)	–
Cc1nc2c(O)cc3c4c([nH]c3c2nc1C)C(=O)CCC4	2.87 µM (inactive)	11.9 µM	2.61 µM (inactive)	4.76 µM (inactive)	4.91 µM (inactive)	2.16 µM (inactive)	3.4 µM (inactive)	–	5.08 µM (inactive)	5.89 µM (inactive)	6.58 µM (inactive)	4.49 µM (inactive)	14.3 µM (inactive)	0.162 µM (active)	0.875 µM (active)	8.93 µM (inactive)	5.45 µM (inactive)	1.99 µM (inactive)	–	19.5 µM (inactive)
COC(=O)[C@@]12CC3CN(Cc4c1[nH]c1ccccc41)C2CC3=O	> 100 µM (inactive)	> 100 µM	> 100 µM (inactive)	–	> 100 µM (inactive)	> 100 µM (inactive)	> 100 µM (inactive)	> 100 µM (inactive)	> 100 µM (inactive)	> 100 µM (inactive)	> 100 µM (inactive)	> 100 µM (inactive)	–	> 100 µM (inactive)	> 100 µM (inactive)	> 100 µM (inactive)	> 100 µM (inactive)	> 100 µM (inactive)	> 100 µM (inactive)	–
CCOc1ccc(-n2nnc3c(N)nc(N)nc32)cc1	> 100 µM (inactive)	> 100 µM	> 100 µM (inactive)	> 100 µM (inactive)	> 100 µM (inactive)	> 100 µM (inactive)	> 100 µM (inactive)	> 100 µM (inactive)	> 100 µM (inactive)	> 100 µM (inactive)	> 100 µM (inactive)	> 100 µM (inactive)	–	–	> 100 µM (inactive)	> 100 µM (inactive)	> 100 µM (inactive)	> 100 µM (inactive)	> 100 µM (inactive)	> 100 µM (inactive)
CCOC(=O)C(NC(=O)c1ccccc1)(N1CCOCC1)C(F)(F)F (configuration not stated)	> 100 µM (inactive)	> 100 µM	> 100 µM (inactive)	> 100 µM (inactive)	> 100 µM (inactive)	> 100 µM (inactive)	> 100 µM (inactive)	> 100 µM (inactive)	> 100 µM (inactive)	> 100 µM (inactive)	> 100 µM (inactive)	> 100 µM (inactive)	> 100 µM (inactive)	> 100 µM (inactive)	> 100 µM (inactive)	> 100 µM (inactive)	> 100 µM (inactive)	> 100 µM (inactive)	> 100 µM (inactive)	–
C1=C[C@@H]2c3ccc4cnccc4c3NC[C@@H]2C1	–	> 100 µM	> 100 µM (inactive)	> 100 µM (inactive)	> 100 µM (inactive)	> 100 µM (inactive)	> 100 µM (inactive)	–	> 100 µM (inactive)	> 100 µM (inactive)	> 100 µM (inactive)	> 100 µM (inactive)	74.3 µM (inactive)	> 100 µM (inactive)	> 100 µM (inactive)	> 100 µM (inactive)	> 100 µM (inactive)	> 100 µM (inactive)	> 100 µM (inactive)	33.6 µM (inactive)
COc1ccc(OC)c([N+](=O)[O-])c1-c1nc2sccn2c1/C=N/N=C(N)N	–	> 100 µM	58.1 µM (inactive)	28.8 µM (inactive)	26.9 µM (inactive)	41.1 µM (inactive)	51.4 µM (inactive)	> 100 µM (inactive)	> 100 µM (inactive)	> 100 µM (inactive)	> 100 µM (inactive)	> 100 µM (inactive)	> 100 µM (inactive)	> 100 µM (inactive)	21.5 µM (inactive)	35.2 µM (inactive)	> 100 µM (inactive)	> 100 µM (inactive)	91.6 µM (inactive)	> 100 µM (inactive)
Cc1ccccc1[P+](C)(c1ccccc1C)c1ccccc1C	2.96 µM (inactive)	19.9 µM	7.94 µM (inactive)	4.84 µM (inactive)	–	6.3 µM (inactive)	8.26 µM (inactive)	–	–	23.9 µM (inactive)	10.3 µM (inactive)	14.7 µM (inactive)	17.7 µM (inactive)	36.9 µM (inactive)	14 µM (inactive)	8.18 µM (inactive)	15.8 µM (inactive)	29.2 µM (inactive)	14.9 µM (inactive)	18.5 µM (inactive)
Nc1nc(Cl)cc(OCC2(CO)CCCC2)n1	> 100 µM (inactive)	> 100 µM	> 100 µM (inactive)	> 100 µM (inactive)	> 100 µM (inactive)	> 100 µM (inactive)	> 100 µM (inactive)	–	> 100 µM (inactive)	> 100 µM (inactive)	> 100 µM (inactive)	> 100 µM (inactive)	–	79.8 µM (inactive)	> 100 µM (inactive)	> 100 µM (inactive)	> 100 µM (inactive)	> 100 µM (inactive)	> 100 µM (inactive)	> 100 µM (inactive)
CC(C)(C)OC(=O)Nc1cc(-c2ccccc2)co1	> 100 µM (inactive)	> 100 µM	94.2 µM (inactive)	96.8 µM (inactive)	33.8 µM (inactive)	54.6 µM (inactive)	> 100 µM (inactive)	> 100 µM (inactive)	> 100 µM (inactive)	> 100 µM (inactive)	> 100 µM (inactive)	95.9 µM (inactive)	> 100 µM (inactive)	–	83.8 µM (inactive)	–	> 100 µM (inactive)	> 100 µM (inactive)	87.5 µM (inactive)	> 100 µM (inactive)
CC(C)(C)OC(=O)N(O)CCCn1cnc2c(N)ncnc21	> 100 µM (inactive)	> 100 µM	> 100 µM (inactive)	> 100 µM (inactive)	> 100 µM (inactive)	> 100 µM (inactive)	> 100 µM (inactive)	–	> 100 µM (inactive)	> 100 µM (inactive)	> 100 µM (inactive)	> 100 µM (inactive)	> 100 µM (inactive)	> 100 µM (inactive)	> 100 µM (inactive)	> 100 µM (inactive)	> 100 µM (inactive)	> 100 µM (inactive)	> 100 µM (inactive)	> 100 µM (inactive)
CC(=O)c1ccc(-c2oc(-c3ccccc3)cc2-c2ccc3c(c2)OCO3)s1	–	–	> 100 µM (inactive)	> 100 µM (inactive)	> 100 µM (inactive)	> 100 µM (inactive)	> 100 µM (inactive)	2.42 µM (inactive)	> 100 µM (inactive)	> 100 µM (inactive)	19.1 µM (inactive)	> 100 µM (inactive)	> 100 µM (inactive)	> 100 µM (inactive)	59 µM (inactive)	–	> 100 µM (inactive)	> 100 µM (inactive)	> 100 µM (inactive)	> 100 µM (inactive)
CC1CC[C@@]2(OC1)OC1C[C@H]3[C@@H]4C/C(=N\N(C)C)[C@@]5(O)CC(O)CC[C@]5(C)[C@H]4CC[C@]3(C)C1[C@@H]2C (some centres not stated)	74.6 µM (inactive)	67.1 µM	43.9 µM (inactive)	42 µM (inactive)	34.1 µM (inactive)	37.2 µM (inactive)	48.9 µM (inactive)	–	–	41.3 µM (inactive)	30.5 µM (inactive)	43.1 µM (inactive)	55.5 µM (inactive)	22.9 µM (inactive)	39.1 µM (inactive)	29.7 µM (inactive)	73.3 µM (inactive)	> 100 µM (inactive)	89.1 µM (inactive)	34.7 µM (inactive)
Cc1nn(C(=O)Cc2ccccc2)c2c1C(c1ccc(O)cc1)SC(=N)N2 (configuration not stated)	–	> 100 µM	–	> 100 µM (inactive)	> 100 µM (inactive)	–	> 100 µM (inactive)	> 100 µM (inactive)	> 100 µM (inactive)	> 100 µM (inactive)	> 100 µM (inactive)	> 100 µM (inactive)	> 100 µM (inactive)	–	> 100 µM (inactive)	> 100 µM (inactive)	> 100 µM (inactive)	> 100 µM (inactive)	> 100 µM (inactive)	> 100 µM (inactive)
